No end group written: not given here.
Assays:
BALB/c (H-2d) mice = assay: Kinetics of β-gal-specific IgG responses in sera of mice immunized i.n. or i.p. (Example 4); format: in vivo
Description: Groups of animals (n=5) were immunized either i.n. (A) or i.p. (B) with 50 μg of β-gal ( ), β-gal plus 10 μg of CTB ( ), β-gal plus 0.5 μg of MALP-2 ( ) or pure buffer solution ( ). The days of the immunizations (day 0, 14 and 21) are marked by arrows. The results are shown as the reciprocal log2 of the geometric endpoint titer, and the SEM […] is indicated by means of vertical lines.
Six- to eight-week old female BALB/c (H-2d) mice were purchased from Harlan Winkelmann GmbH (Borchen, Germany) and treated in accordance with local and EU directives. Groups each of 5 mice were immunized on day 1, 14 and 21 either with 40 μg of pure β-galactosidase (Boehringer, Mannheim, Germany) with admixture of 0.5 μg of synthetic MALP-2 or 10 μg of cholera toxin B subunit (CTB; ICN Biomedicals Inc., Ohio) as standard adjuvant. For intranasal administration (i.n.), 10 μl were administered into each nostril, while for the i.p. injection β-galactosidase was resuspended with or without MALP-2 in 400, 100 or 100 μl of PBS. Serum samples were taken at various times (day 0, 13, 20 and 30) and stored at −20° C. until the β-galactosidase-specific antibodies were determined. Nunc-Immuno MaxiSorp assay plates with 96 wells (Nunc, Roskilde, Denmark) were coated with 100 μl of β-gal (Boehringer, Mannheim, Germany) with 5 μg/ml in 0.05 M […] (pH 8.2) per well. Serial two-fold dilutions of the sera or lavages in PBS with 1% BSA and 0.05% Tween-20 were added (100 μl/well) and the plates were incubated at 37° C. for 24 hours. After rinsing, biotinylated γ chain-specific goat anti-mouse IgG (Sigma Chemie, Deisenhofen, Germany) was added, and the plates were incubated at 37° C. for a further hour. After rinsing four times, 100 μl of peroxidase-conjugated streptavidin (Pharmingen) were added to the […], and the plates were incubated at 37° C. for 30 minutes. After rinsing four times, the reactions were developed by means of ABTS in 0.1 M citrate-phosphate buffer (pH 4.35) which contained 0.01% H2O2.

immunized animals = assay: Tolerability and anti-adjuvant antibodies in immunized animals; details: after intranasal administration of MALP-2 as adjuvant

In the case of “S-[2,3-bispalmitoyloxypropyl]cysteinyl-GNNDESNISFKEK ({S‑(2,3-bispalmitoyloxypropyl)Cys}-GNNDESNISFKEK) [MALP-2]”, the “kinetics and overall efficacy of antibody responses compared with 10 μg CTB” value (BALB/c (H-2d) mice; 0.5 μg MALP-2 versus 10 μg CTB, i.n.) is reported as “very similar”, the “increase of β-galactosidase-specific IgG serum titers” value (BALB/c (H-2d) mice; i.p., 0.5 μg per animal per dose, versus pure β-galactosidase) is reported as 100 fold and the “titers of specific IgG at the end of the immunization protocol” value (BALB/c (H-2d) mice; β-galactosidase with 0.5 μg MALP-2 i.n.) is reported as “above 500,000”. The “titers of specific IgG in serum after a single dose” value (BALB/c (H-2d) mice; β-galactosidase with 0.5 μg MALP-2 i.n., single dose) was > 60,000 and the anti-MALP-2 antibodies (immunized animals) was “No anti-MALP-2 antibodies were detectable”.
